Results: the NIST ThermoML archive (doi:10.1021/je8007759)

Test: xn = mol fraction of the nth substance listed

CC1CCC(=O)O1 (stereo not given) [γ-valerolactone] + O=C=O
mass density [kg/m3], Fluid (supercritical or subcritical phases), Pycnometric method
Conditions | 322.9 K | 327.9 K
9870 kPa, x1 = 0.01 | 521 | –
9890 kPa, x1 = 0.01 | 526 | –
9920 kPa, x1 = 0.01 | 529 | –
9940 kPa, x1 = 0.01 | 532 | –
9960 kPa, x1 = 0.01 | 535 | –
9980 kPa, x1 = 0.01 | 539 | –
10000 kPa, x1 = 0.01 | 540 | –
10020 kPa, x1 = 0.01 | 542 | –
10050 kPa, x1 = 0.01 | 547 | –
10080 kPa, x1 = 0.01 | 550 | –
10100 kPa, x1 = 0.01 | 554 | –
10110 kPa, x1 = 0.01 | 556 | –
10140 kPa, x1 = 0.01 | 559 | –
10170 kPa, x1 = 0.01 | 563 | –
10200 kPa, x1 = 0.01 | 566 | –
10230 kPa, x1 = 0.01 | 576 | –
10230 kPa, x1 = 0.025 | 673 | –
10240 kPa, x1 = 0.025 | 675 | –
10260 kPa, x1 = 0.01 | 574 | –
10270 kPa, x1 = 0.025 | 679 | –
10290 kPa, x1 = 0.01 | 578 | –
10310 kPa, x1 = 0.025 | 683 | –
10330 kPa, x1 = 0.01 | 582 | –
10370 kPa, x1 = 0.01 | 586 | –
10370 kPa, x1 = 0.025 | 687 | –
10380 kPa, x1 = 0.15 | 939 | –
10400 kPa, x1 = 0.01 | 590 | –
10430 kPa, x1 = 0.01 | 594 | –
10440 kPa, x1 = 0.025 | 692 | –
10470 kPa, x1 = 0.01 | 598 | –
10470 kPa, x1 = 0.025 | 696 | –
10510 kPa, x1 = 0.05 | 766 | –
10520 kPa, x1 = 0.01 | 602 | –
10540 kPa, x1 = 0.025 | 701 | –
10550 kPa, x1 = 0.05 | 769 | –
10570 kPa, x1 = 0.01 | 606 | 497
10600 kPa, x1 = 0.01 | – | 500
10600 kPa, x1 = 0.05 | 771 | –
10610 kPa, x1 = 0.025 | 705 | –
10620 kPa, x1 = 0.01 | 610 | –
10630 kPa, x1 = 0.01 | – | 502
10630 kPa, x1 = 0.1 | 881 | –
10660 kPa, x1 = 0.01 | – | 505
10670 kPa, x1 = 0.025 | 710 | –
10680 kPa, x1 = 0.01 | 615 | –
10690 kPa, x1 = 0.01 | – | 509
10700 kPa, x1 = 0.1 | 882 | –
10720 kPa, x1 = 0.01 | 619 | 511
10720 kPa, x1 = 0.05 | 776 | –
10740 kPa, x1 = 0.01 | – | 514
10750 kPa, x1 = 0.025 | 714 | –
10770 kPa, x1 = 0.01 | – | 517
10770 kPa, x1 = 0.1 | 884 | –
10780 kPa, x1 = 0.01 | 624 | –
10820 kPa, x1 = 0.01 | – | 522
10820 kPa, x1 = 0.025 | 718 | –
10840 kPa, x1 = 0.01 | 629 | –
10840 kPa, x1 = 0.1 | 885 | –
10860 kPa, x1 = 0.05 | 781 | –
10880 kPa, x1 = 0.01 | – | 529
10880 kPa, x1 = 0.15 | 943 | –
10900 kPa, x1 = 0.01 | 633 | –
10910 kPa, x1 = 0.025 | 723 | –
10930 kPa, x1 = 0.01 | – | 535
10980 kPa, x1 = 0.01 | 638 | –
11000 kPa, x1 = 0.1 | 888 | –
11010 kPa, x1 = 0.01 | – | 542
11010 kPa, x1 = 0.05 | 787 | –
11020 kPa, x1 = 0.025 | 727 | –
11040 kPa, x1 = 0.01 | 641 | –
11080 kPa, x1 = 0.01 | – | 549
11090 kPa, x1 = 0.025 | 732 | –
11130 kPa, x1 = 0.01 | – | 554
11160 kPa, x1 = 0.01 | 650 | –
11180 kPa, x1 = 0.05 | 792 | –
11190 kPa, x1 = 0.01 | – | 559
11190 kPa, x1 = 0.025 | 737 | –
11200 kPa, x1 = 0.15 | 945 | –
11230 kPa, x1 = 0.1 | 892 | –
11280 kPa, x1 = 0.01 | – | 567
11290 kPa, x1 = 0.01 | 657 | –
11300 kPa, x1 = 0.025 | – | 661
11310 kPa, x1 = 0.025 | 742 | –
11360 kPa, x1 = 0.025 | – | 665
11380 kPa, x1 = 0.05 | 797 | –
11420 kPa, x1 = 0.01 | – | 578
11420 kPa, x1 = 0.025 | – | 669
11450 kPa, x1 = 0.025 | 747 | –
11480 kPa, x1 = 0.025 | – | 673
11510 kPa, x1 = 0.01 | 667 | 586
11520 kPa, x1 = 0.025 | – | 677
11540 kPa, x1 = 0.025 | 751 | –
11540 kPa, x1 = 0.1 | 897 | –
11580 kPa, x1 = 0.05 | 803 | –
11590 kPa, x1 = 0.025 | – | 682
11600 kPa, x1 = 0.15 | – | 928
11630 kPa, x1 = 0.01 | – | 594
11660 kPa, x1 = 0.025 | – | 686
11700 kPa, x1 = 0.025 | 757 | –
11720 kPa, x1 = 0.05 | – | 759
11730 kPa, x1 = 0.025 | – | 690
11740 kPa, x1 = 0.1 | – | 864
11760 kPa, x1 = 0.15 | 950 | –
11770 kPa, x1 = 0.1 | – | 865
11790 kPa, x1 = 0.01 | – | 606
11800 kPa, x1 = 0.01 | 681 | –
11800 kPa, x1 = 0.025 | – | 694
11800 kPa, x1 = 0.05 | 808 | –
11820 kPa, x1 = 0.025 | 763 | –
11840 kPa, x1 = 0.05 | – | 763
11880 kPa, x1 = 0.1 | – | 867
11890 kPa, x1 = 0.025 | – | 698
11920 kPa, x1 = 0.01 | – | 615
11920 kPa, x1 = 0.15 | – | 931
11970 kPa, x1 = 0.025 | 768 | –
11970 kPa, x1 = 0.05 | – | 768
11980 kPa, x1 = 0.01 | – | 621
11990 kPa, x1 = 0.025 | – | 703
12010 kPa, x1 = 0.1 | 903 | –
12030 kPa, x1 = 0.01 | 691 | –
12050 kPa, x1 = 0.1 | – | 871
12070 kPa, x1 = 0.01 | – | 628
12080 kPa, x1 = 0.05 | 814 | –
12110 kPa, x1 = 0.025 | – | 709
12130 kPa, x1 = 0.025 | 773 | –
12130 kPa, x1 = 0.05 | – | 774
12140 kPa, x1 = 0.15 | 952 | –
12250 kPa, x1 = 0.15 | – | 934
12280 kPa, x1 = 0.025 | – | 716
12300 kPa, x1 = 0.01 | – | 639
12310 kPa, x1 = 0.05 | – | 779
12320 kPa, x1 = 0.05 | 820 | –
12330 kPa, x1 = 0.025 | 778 | –
12520 kPa, x1 = 0.025 | 784 | –
12540 kPa, x1 = 0.1 | 910 | –
12620 kPa, x1 = 0.05 | 826 | –
12660 kPa, x1 = 0.15 | 956 | –
12710 kPa, x1 = 0.025 | 790 | –
12920 kPa, x1 = 0.025 | 795 | –
12960 kPa, x1 = 0.05 | 832 | –
13080 kPa, x1 = 0.1 | 915 | –
13150 kPa, x1 = 0.025 | 801 | –
13170 kPa, x1 = 0.15 | 959 | –
13320 kPa, x1 = 0.05 | 838 | –
13390 kPa, x1 = 0.025 | 806 | –
13570 kPa, x1 = 0.05 | 843 | –
13640 kPa, x1 = 0.025 | 812 | –
13720 kPa, x1 = 0.15 | 962 | –
13790 kPa, x1 = 0.1 | 923 | –
14000 kPa, x1 = 0.05 | 850 | –
14100 kPa, x1 = 0.025 | 821 | –
14230 kPa, x1 = 0.15 | 965 | –
14430 kPa, x1 = 0.05 | 856 | –
14490 kPa, x1 = 0.1 | 929 | –
14840 kPa, x1 = 0.05 | 862 | –
14860 kPa, x1 = 0.15 | 969 | –
14880 kPa, x1 = 0.1 | 932 | –
15440 kPa, x1 = 0.15 | 972 | –
15620 kPa, x1 = 0.05 | 872 | –
15960 kPa, x1 = 0.15 | 975 | –
16660 kPa, x1 = 0.15 | 979 | –
17270 kPa, x1 = 0.15 | 982 | –

mass density [kg/m3], 322.9 K, high pressure variable cell
Conditions | x1 = 0.01 | x1 = 0.025 | x1 = 0.05 | x1 = 0.1 | x1 = 0.15
Gas | 514 | 672 | 763 | – | –
Liquid | – | – | – | 877 | 936
